Legend:
[1] = Example 2 Part E: single- and multiple-dose PK of tucatinib and ONT-993; type: in vivo, human; conditions: tucatinib 300 mg BID, Day 14 vs Day 8
OAT2 = molecular target: T1, OAT2 (Homo sapiens, UniProt Q9Y694); assay: Inhibition of OAT2 mediated transport of creatinine in transfected MDCK-II cells (Example 3); type: in vitro ADME; conditions: at concentration of 10 μM
T1 construct: expressed in transfected cells; host or cells: MDCK-II
T1 sequence (Q9Y694 1-548): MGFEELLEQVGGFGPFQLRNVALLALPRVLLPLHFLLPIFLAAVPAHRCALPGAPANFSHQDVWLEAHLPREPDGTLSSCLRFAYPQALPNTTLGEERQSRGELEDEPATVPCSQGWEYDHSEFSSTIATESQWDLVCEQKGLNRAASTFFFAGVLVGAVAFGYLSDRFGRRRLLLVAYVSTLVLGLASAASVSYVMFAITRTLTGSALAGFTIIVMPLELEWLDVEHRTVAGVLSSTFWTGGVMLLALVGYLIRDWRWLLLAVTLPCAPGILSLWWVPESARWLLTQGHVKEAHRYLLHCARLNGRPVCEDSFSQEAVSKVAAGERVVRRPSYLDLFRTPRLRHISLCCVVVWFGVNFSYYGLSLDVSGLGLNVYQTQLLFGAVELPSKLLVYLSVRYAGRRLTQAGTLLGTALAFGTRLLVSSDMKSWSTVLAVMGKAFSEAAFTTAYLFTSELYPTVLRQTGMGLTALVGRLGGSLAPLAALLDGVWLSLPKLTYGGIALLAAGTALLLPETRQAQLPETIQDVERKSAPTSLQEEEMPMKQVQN
Description: (§1) Substrate dependent inhibition is common among transporters including MATE1 and MATE2-K. In this study, creatinine was used as the probe substrate to assess the inhibitory potency of Tucatinib and ONT-993. OAT2, OCT2, OCT3, MATE1, and MATE2-K are the renal transporters identified to transport creatinine. Tucatinib and its metabolite ONT-993 were tested as potential inhibitors of OAT2, OCT2, MATE1, and MATE2-K mediated transport using creatinine as a probe substrate.
(§2) For this study, MDCK-II were maintained in DMEM with low glucose and 10% FBS. Cells were seeded at 60K±10K cells/well on 96-well, transwell membrane plates approximately 24 hours before transfection. Transport assays were carried out approximately 48 hours after transfection. Cells were transfected and treated to express the transporter of interest or treated with a control vector. The transport of creatinine was determined by radiometric detection.
(§3) Net transporter mediated uptake of the substrate by each transporter was calculated as follows: Net Transporter Mediated Substrate Uptake (pmol/min/cm^2)=(Cellular accumulation in the presence of the transporter)−(Mean cellular accumulation in the absence of the transporter.
(§4) Percent inhibition was calculated as follows: Percent inhibition=100−(100*(transporter mediated uptake)with inhibition/(transporter mediated uptake)without inhibition) […]

OCT2 = molecular target: T2, OCT2 (Homo sapiens, UniProt O15244); assay: Inhibition of OCT2 mediated transport of creatinine in transfected MDCK-II cells (Example 3); type: in vitro ADME; conditions: probe substrate creatinine, 0.03 to 10 μM
T2 construct: expressed in transfected cells; host or cells: MDCK-II
T2 sequence (O15244 1-555): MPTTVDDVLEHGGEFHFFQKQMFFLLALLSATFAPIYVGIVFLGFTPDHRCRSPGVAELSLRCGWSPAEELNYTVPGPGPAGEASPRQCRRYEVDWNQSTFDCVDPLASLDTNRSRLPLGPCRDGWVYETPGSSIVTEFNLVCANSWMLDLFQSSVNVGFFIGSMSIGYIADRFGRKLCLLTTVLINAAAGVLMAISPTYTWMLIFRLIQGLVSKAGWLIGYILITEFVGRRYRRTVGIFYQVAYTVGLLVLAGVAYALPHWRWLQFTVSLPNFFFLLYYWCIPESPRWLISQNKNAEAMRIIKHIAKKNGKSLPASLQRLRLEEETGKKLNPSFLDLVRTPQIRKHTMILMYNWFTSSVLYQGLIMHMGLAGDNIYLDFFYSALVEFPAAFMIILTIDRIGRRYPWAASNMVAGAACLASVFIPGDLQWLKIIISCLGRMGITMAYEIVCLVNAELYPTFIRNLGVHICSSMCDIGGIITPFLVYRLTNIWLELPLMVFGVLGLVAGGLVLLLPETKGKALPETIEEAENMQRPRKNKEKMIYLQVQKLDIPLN
Description: as §1, §2, §3, §4

MATE1 = molecular target: T3, MATE1 (Homo sapiens, UniProt Q96FL8); assay: Inhibition of MATE1 mediated transport of creatinine in transfected MDCK-II cells (Example 3); type: in vitro ADME; set-up: expressed in transfected cells; host or cells: MDCK-II; conditions: probe substrate creatinine
T3 sequence (Q96FL8 1-570): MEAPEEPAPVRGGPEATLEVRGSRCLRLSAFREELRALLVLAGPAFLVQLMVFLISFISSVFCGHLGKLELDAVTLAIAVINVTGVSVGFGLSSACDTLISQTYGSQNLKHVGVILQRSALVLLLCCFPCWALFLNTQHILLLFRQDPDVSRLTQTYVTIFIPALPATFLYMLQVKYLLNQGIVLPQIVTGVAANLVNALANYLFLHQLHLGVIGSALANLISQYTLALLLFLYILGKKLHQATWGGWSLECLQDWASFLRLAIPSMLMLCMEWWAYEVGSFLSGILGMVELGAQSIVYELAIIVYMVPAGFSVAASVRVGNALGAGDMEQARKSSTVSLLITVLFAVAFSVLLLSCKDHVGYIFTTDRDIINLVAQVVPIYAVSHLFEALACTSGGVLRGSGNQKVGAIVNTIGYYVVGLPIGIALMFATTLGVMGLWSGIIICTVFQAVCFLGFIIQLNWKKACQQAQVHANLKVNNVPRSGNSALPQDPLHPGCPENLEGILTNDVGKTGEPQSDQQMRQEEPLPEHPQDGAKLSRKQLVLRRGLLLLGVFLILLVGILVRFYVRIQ
Description: OAT2, OCT2, OCT3, MATE1, and MATE2-K are the renal transporters identified to transport creatinine.
as §2, §3
Percent inhibition was calculated as follows: Percent inhibition=100−(100*(transporter mediated uptake)with inhibition/(transporter mediated uptake)without inhibition)
The following equation was used to determine IC50 values of uptake assays: […]

## Cc1cc(Nc2ncnc3ccc(NC4=NC(C)(CO)CO4)cc23)ccc1Oc1ccn2ncnc2c1 (stereo not shown) [ONT-993]
[1]
  Rac (accumulation ratio) after multiple dosing: 2.01
OAT2
  Maximum inhibition of OAT2 mediated transport of creatinine: 44.9%
OCT2
  IC50: 544 ± 278 nM
MATE1
  IC50: 86.3 ± 12.6 nM

— patent US20220193076A1, “METHODS OF TREATING BREAST CANCER WITH TUCATINIB” (Seagen Inc., priority 2019, published 2022)
